{"source": "patent US20100178260A1", "about": "“COMPOSITION COMPRISING A RETINOID, AN ADENOSINE-BASED NONPHOSPHATED COMPOUND, AND A SEMICRYSTALLINE POLYMER” (L'OREAL, priority 2009, published 2010)", "tested_on": "Realskin reconstructed epidermis (filaggrin, marker for epidermal differentiation)", "assay": "Epidermal differentiation (filaggrin immunolabelling) in Realskin reconstructed epidermis model", "type": "cell-based", "settings": "incubated from D 20, analysed from D 27", "description": "The effects of the combination are evaluated with respect to epidermal differentiation and proliferation in the […] reconstructed epidermis model. […] The epidermises are analysed histologically and by filaggrin (marker for epidermal differentiation) immunolabelling starting from D 27. Filaggrin, which is a late differentiation marker, is a product of degradation of profilaggrin, a high MW phosphoprotein contained in the keratohyalin granules. At the moment the keratinocyte transforms into a corneocyte, the keratohyalin granules disaggregate, and the profillagrin undergoes sequential proteolysis which releases oligomers and then monomers of filaggrin. The results arc illustrated in FIG. 1."}
{"smiles": "CC1=C(/C=C/C(C)=C/C=C/C(C)=C/CO)C(C)(C)CCC1", "note": "[retinol]", "values": [{"measurement": "delay in differentiation (filaggrin immunolabelling)", "setting": "Retinol at 250 μM", "value": "−36", "unit": "%"}]}
{"smiles": "Nc1ncnc2c1ncn2[C@@H]1O[C@H](CO)[C@@H](O)[C@H]1O", "note": "[adenosine]", "values": [{"measurement": "differentiation (filaggrin immunolabelling)", "setting": "Adenosine at 10 μM", "value": "+11%"}]}
